Where two headings read alike, the source gives them in different places.

Details of data set [1]: method as in earlier work. Conditions: cited from earlier work.
Data set [2] in a line: Selectivity cytotoxicity index (GI50 in MCF10A/GI50 in Du145). To be noted: human, MCF10A normal breast cells and Du145 prostate cancer cells.
The test system of the next data set is HT29 colon. The arrangement: method as in PMID 36296713, PMID 36142383. Conditions: cited from earlier work.
Another data set deals with MCF7 breast. The arrangement: method as in PMID 36296713, PMID 36142383. Conditions: cited from earlier work.
The next data set relates to A2780 ovarian. The arrangement: method as in PMID 36296713, PMID 36142383. Conditions: cited from earlier work.
The next data set relates to H460 lung. Further details: method as in PMID 36296713, PMID 36142383. To be noted: cited from earlier work.
The test system of a further data set is A431 skin. The arrangement: method as in PMID 36296713, PMID 36142383. Conditions: cited from earlier work.
The next data set has as its system Du145 prostate. The arrangement: method as in PMID 36296713, PMID 36142383. Conditions: cited from earlier work.
The subject of a further data set is BE2C neuroblastoma. The arrangement: method as in PMID 36296713, PMID 36142383. Conditions: cited from earlier work.
In another data set the test system is SJG2 glioblastoma. Further details: method as in PMID 36296713, PMID 36142383. To be noted: cited from earlier work.
In another data set the test system is MIA pancreas. The arrangement: method as in PMID 36296713, PMID 36142383. Conditions: cited from earlier work.
Data set [3] has as its system non-tumour derived MCF10A breast line. Further details: method as in PMID 36296713, PMID 36142383. To be noted: cited from earlier work.
The subject of data set [4] is ADDP ovarian variant (cisplatin-resistant A2780 clone). Further details: method as in PMID 36296713, PMID 36142383. To be noted: cited from earlier work.
The next data set relates to multiple cell lines. The arrangement: method as in PMID 36296713, PMID 36142383. Conditions: mean over all cell lines tested; cited from earlier work.
Data set [5] deals with PC3 (prostate carcinoma) tumour. Further details: method as in PMID 18997969. To be noted: mice with PC3 tumour, cited from earlier work; for reduction in mean tumour mass: relative to vehicle-treated control.
The nature of data set [6]: Stability in 10 mM PBS monitored by HPLC. It is filed as physicochemical. Conditions: 10 mM PBS pH ~7.4, 36 h, room temperature and 37 °C. The procedure: The stability measurements for complexes 1–6 were determined by dissolving each complex in 10 mM aqueous phosphate buffered saline (PBS) solution at pH ~7.4 and incubated at room temperature and at 37 °C for 36 h. The experiments were monitored via HPLC.
Additional stability studies for 1–6 were undertaken using 10 mM PBS (~7.4 pH) as the aqueous solution, but without the presence of a reducing agent such as AsA. This was only to show whether the complexes would be stable in aqueous solution for long hours. Each complex was dissolved in PBS and incubated at room temperature and at 37 °C for 36 h. After the incubation, all samples were analysed through HPLC. […] After 36 h at room temperature, peak traces of platinum(IV) complexes and the platinum(II) precursors, as well as the dissociated ACE ligand, were present, as shown in Figure S77. […] From this, it was reasoned that the larger the ligand conjugated to our platinum(IV) scaffold (i.e., ACE), the more susceptible the resulting derivatives (4–6) are to reduction, as they reduce even without a reducing agent. This parallels the results from the reduction experiments above, where 4–6 were the quickest to reduce in the presence of AsA.

Data set [7] is described as follows: Lipophilicity by HPLC (log kw). Type of data set: physicochemical. Conditions: extrapolated from log k versus % organic solvent. The procedure: Lipophilicity measurements were undertaken using HPLC, as previously described (see Supplementary Materials).
Lipophilicity measurements were undertaken using HPLC as previously described. The complexes were eluted at different isocratic ratios. The capacity factor (k) was calculated using the retention times of the complexes. A standard curve was generated to determine the log value of the capacity factor (log k), and this was performed by plotting the log k value at each isocratic ratio versus the percentage of the organic solvent used in solvent (Figure S61). This produced a linear expression that allowed for the extrapolation of log kw. Log kw is the measure of lipophilicity; therefore, a greater value corresponds to increased lipophilicity.

Another data set has as its system MCF10A / Du145. Further details: method as in PMID 36296713, PMID 36142383. To be noted: GI50 in MCF10A/GI50 in Du145, from data of previous studies; cited from earlier work.
A further data set concerns HT29 colon cells. The arrangement: method as in PMID 36296713, PMID 36142383. Conditions: cited from earlier work.
The test system of data set [8] is peritoneal carcinomatosis. Further details: method as in PMID 20535526. To be noted: BD-IX rats, intravenous and intraperitoneal routes; cited from earlier work.

Turning to `COc1ccc2c(c1)c(CC(=O)OCC(=O)O)c(C)n2C(=O)c1ccc(Cl)cc1` [ACE, acemetacin], the reported lipophilicity values in data set [1] is recorded as 4.49. In data set [2], the selectivity ratio turned out to be 1.
For `N.N.[Cl][Pt][Cl]` [Cisplatin, cis-diamminedichloroplatinum(II)], the concentration for 50% growth inhibition (GI50) in the data set on HT29 colon is 11.3 µM; in the data set with MCF7 breast, 6.5 ± 0.8 µM; in the data set with A2780 ovarian, 1 ± 0.1 µM; with H460 lung, 0.9 ± 0.2 µM; in the data set with A431 skin, 2.4 ± 0.3 µM; in the data set with Du145 prostate it was 1.2 ± 0.1 µM. Besides, the GI50 in the data set with BE2C neuroblastoma was 1.9 ± 0.2 µM; in the data set on SJG2 glioblastoma it was 0.4 ± 0.1 µM; in the data set on MIA pancreas, 7.5 ± 1.3 µM; in data set [3], 5.2 ± 0.52 µM; in data set [4] it was 28 µM; in the data set with multiple cell lines, 5.84 ± 0.61 µM. Further, in data set [5], the “reduction in mean tumour mass” value is “comparable reduction in mean tumour mass”.
Consider `COc1ccc2cc([C@H](C)C(=O)[O][Pt+2]3([OH])[N]4C=CC=c5cc(C)c6c(c54)[N]3C=CC=6)ccc2c1.N[C@H]1CCCC[C@@H]1N` (some centres unmarked) [Complex 2, [Pt^IV(5-Mephen)(SS-DACH)(NPX)(OH)]^2+], for which the “stability in PBS” value in data set [6] is “some traces of precursor platinum(IV) complexes and the dissociated NPX ligand were evident”.
For `COc1ccc2c(c1)c(CC(=O)OCC(=O)[O][Pt-2]13([OH])([NH2+][C@H]4CCCC[C@@H]4[NH2+]1)[n+]1cccc4ccc5ccc[n+]3c5c41)c(C)n2C(=O)c1ccc(Cl)cc1` [Complex 4, [Pt^IV(phen)(SS-DACH)(ACE)(OH)]^2+], the “log kw Values” in data set [7] was 1.93.
The same measure, in the same setting: next, `COc1ccc2c(c1)c(CC(=O)OCC(=O)[O][Pt-2]13([OH])([NH2+][C@H]4CCCC[C@@H]4[NH2+]1)[n+]1cccc4cc(C)c5ccc[n+]3c5c41)c(C)n2C(=O)c1ccc(Cl)cc1` [Complex 5, [Pt^IV(5-Mephen)(SS-DACH)(ACE)(OH)]^2+]: 2.16.
For `Cc1cc2c3c4c1=CC=C[N]4[Pt+2][N]3C=CC=2.N[C@H]1CCCC[C@@H]1N` [Complex 5MESS], the GI50 with HT29 colon was 0.033 ± 0.004 µM; in the data set with MCF7 breast, 0.2 ± 0.012 µM; in the data set on A2780 ovarian it was 0.061 ± 0.01 µM; in the data set on H460 lung it was 0.041 ± 0.005 µM; with A431 skin, 0.12 ± 0.025 µM; in the data set on Du145 prostate, 0.022 ± 0.003 µM. The GI50 in the data set with BE2C neuroblastoma was 0.27 ± 0.038 µM; in the data set with SJG2 glioblastoma it was 0.22 ± 0.01 µM; in the data set on MIA pancreas it was 0.048 ± 0.002 µM; in data set [3] it was 0.03 ± 0.002 µM; in [4], 0.034 ± 0.002 µM; with multiple cell lines, 0.117 ± 0.012 µM. In addition, the “Selectivity Cytotoxicity Index (SCI)” value in the data set on MCF10A / Du145 is given as 1.36. The “ROS Production” value is recorded as 204 ± 4 RFU in the data set with HT29 colon cells (HT29, 24 h); 205 ± 3 RFU in the data set with HT29 colon cells (HT29, 48 h); 188 ± 3 RFU in the data set with HT29 colon cells (HT29, 72 h).
As to `COc1ccc2c(c1)c(CC(=O)OCC(=O)[O][Pt-2]13([OH])([NH2+][C@H]4CCCC[C@@H]4[NH2+]1)[n+]1cccc4c(C)c(C)c5ccc[n+]3c5c41)c(C)n2C(=O)c1ccc(Cl)cc1` [Complex 6, [Pt^IV(5,6-Me2phen)(SS-DACH)(ACE)(OH)]^2+], in data set [7], the “log kw Values” is given as 2.29.
On to `Cc1c(C)c2cccnc2c2ncccc12.N[C@H]1CCCC[C@@H]1N.[Pt]` [Complex 56MESS, [Pt^II(5,6-Me2phen)(SS-DACH)]^2+], for which the GI50 in the data set with HT29 colon was 0.01 ± 0.0016 µM; in the data set with MCF7 breast it was 0.093 ± 0.044 µM; in the data set with A2780 ovarian, 0.076 ± 0.057 µM; with H460 lung, 0.021 ± 0.002 µM; with A431 skin it was 0.029 ± 0.001 µM; in the data set on Du145 prostate, 0.0046 ± 0.0004 µM. Also, the concentration for 50% growth inhibition (GI50) was 0.059 ± 0.004 µM in the data set on BE2C neuroblastoma; 0.066 ± 0.022 µM in the data set on SJG2 glioblastoma; 0.013 ± 0.002 µM with MIA pancreas; 0.016 ± 0.001 µM in data set [3]; 0.013 ± 0.002 µM in data set [4]; 0.036 ± 0.01 µM in the data set with multiple cell lines. Moreover, the “Selectivity Cytotoxicity Index (SCI)” value in the data set with MCF10A / Du145 is reported as 3.48. For the same compound, the “ROS Production” value is 240 ± 5 RFU with HT29 colon cells (HT29, 24 h); 218 ± 3 RFU in the data set on HT29 colon cells (HT29, 48 h); 255 ± 4 RFU with HT29 colon cells (HT29, 72 h). Also, the toxicity entry in data set [8] is on record as “induced nephrotoxicity”. In data set [8], the tumour suppression response result is recorded as “did not demonstrate tumour suppression response”.
`C1=C[N]2[Pt+2][N]3C=CC=c4ccc(c2c43)=C1.N[C@H]1CCCC[C@@H]1N` [PHENSS]: the GI50 was 0.16 ± 0.045 µM in the data set with HT29 colon; 1.5 ± 0.5 µM with MCF7 breast; 0.23 ± 0.03 µM in the data set with A2780 ovarian; 0.36 ± 0.035 µM with H460 lung; 0.48 ± 0.17 µM in the data set on A431 skin; 0.1 ± 0.038 µM in the data set on Du145 prostate. The GI50 is 0.38 ± 0.046 µM in the data set on BE2C neuroblastoma; 0.33 ± 0.066 µM with SJG2 glioblastoma; 0.2 ± 0.057 µM in the data set on MIA pancreas; 0.3 ± 0.058 µM in [3]; 0.19 ± 0.047 µM in data set [4]; 0.434 ± 0.11 µM with multiple cell lines. In the data set on MCF10A / Du145, the “Selectivity Cytotoxicity Index (SCI)” value is on record as 3.00. Also, the “ROS Production” value in the data set on HT29 colon cells (HT29, 24 h) is given as 174 ± 2 RFU; with HT29 colon cells (HT29, 48 h) it was 172 ± 9 RFU; in the data set with HT29 colon cells (HT29, 72 h), 176 ± 7 RFU. For the same compound, in [5], the “reduction in mean tumour mass” value is “comparable reduction in mean tumour mass”. In data set [5], the toxic side effects entry is “did not elicit any toxic side effects”.

The values above are taken from paper PMC10177380 (Cancers, 2023).
